The values below come from PubChem BioAssay (NCI).

Some test systems named below: K-562 leukemia; DMS 273 small cell lung; SK-MEL-2 melanoma; TK-10 renal; U251 CNS; OVCAR-4 ovarian; DMS 114 small cell lung; LOX IMVI melanoma; M19-MEL melanoma; SN12C renal; SF-539 CNS; BT-549 breast.
Holding throughout (experiment): NCI tumour cell line growth inhibition, 48 h

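Method: 48-hour compound exposure of cells in 96-well plates, five concentrations, linear interpolation of endpoints. TGI denotes the concentration required for complete inhibition of growth.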

As for `C=C1C[C@]23C[C@@]1(O)CC[C@H]2[C@@]12C=C[C@H](O)[C@@](C)(C(=O)O1)[C@H]2[C@@H]3C(=O)O`, the TGI in the experiment on K-562 leukemia, in the experiment with DMS 273 small cell lung, with SK-MEL-2 melanoma, in the experiment with TK-10 renal, in the experiment with U251 CNS and with OVCAR-4 ovarian was more than 100 µM in each case. Further, the TGI in the experiment on DMS 114 small cell lung, with LOX IMVI melanoma, in the experiment on M19-MEL melanoma, with SN12C renal and with SF-539 CNS was more than 100 µM throughout.

Turning to `COS(=O)c1cc(Cl)cc(Cl)c1O` (stereo not drawn), the TGI in the experiment on K-562 leukemia, in the experiment on SK-MEL-2 melanoma, in the experiment on TK-10 renal, with U251 CNS, with OVCAR-4 ovarian and in the experiment with DMS 114 small cell lung was more than 100 µM each time. The TGI with LOX IMVI melanoma, in the experiment on M19-MEL melanoma, in the experiment on SN12C renal and in the experiment with SF-539 CNS was more than 100 µM throughout.

In the case of `CCN(CC)CCCNc1ccc2nnn3c4ccc(O)cc4c(=O)c1c23`, the TGI with K-562 leukemia came out at 53.3 µM; in the experiment with DMS 273 small cell lung, 17.9 µM; in the experiment on SK-MEL-2 melanoma, 28.8 µM; in the experiment on TK-10 renal, 17.6 µM; with U251 CNS it was 7.61 µM; in the experiment on OVCAR-4 ovarian it was 19.3 µM. Besides, the TGI with BT-549 breast is 27 µM; in the experiment on DMS 114 small cell lung, 25.1 µM; in the experiment with LOX IMVI melanoma, 13.1 µM; in the experiment on M19-MEL melanoma, 26.8 µM; in the experiment with SN12C renal it was 20.7 µM; with SF-539 CNS, 22.8 µM.

Take `CCOC(=O)C(C(=O)Cc1ccccc1)c1ccccc1` (stereo not drawn): the TGI in the experiment on K-562 leukemia, in the experiment on SK-MEL-2 melanoma, in the experiment with TK-10 renal, in the experiment with U251 CNS, with OVCAR-4 ovarian and in the experiment on LOX IMVI melanoma was more than 100 µM in each case. Further, the TGI in the experiment on M19-MEL melanoma, with SN12C renal and in the experiment on SF-539 CNS was more than 100 µM in each case.

Consider `O=[As](O)(O)c1cc(N=Nc2ccc(-c3ccc(N=Nc4cc([As](=O)(O)O)c(O)cc4O)cc3)cc2)c(O)cc1O`, for which the TGI in the experiment with K-562 leukemia is more than 100 µM; with DMS 273 small cell lung, more than 100 µM; in the experiment on SK-MEL-2 melanoma, more than 100 µM; in the experiment on TK-10 renal, more than 100 µM; in the experiment with U251 CNS, more than 100 µM; in the experiment on OVCAR-4 ovarian, more than 56.8 µM. Further, the TGI in the experiment with DMS 114 small cell lung, in the experiment on LOX IMVI melanoma, in the experiment on M19-MEL melanoma, with SN12C renal and in the experiment with SF-539 CNS was more than 100 µM throughout.
